# Data taken from patent US20220281848A1, “PYRAZOLE-SUBSTITUTED PYRROLIDINONES AS HERBICIDES” (FMC Corporation, priority 2019, published 2022).
# Test system: plants
# Test: Test D post-emergence, other plants of Tables D2 and D4
# Format: in vivo
# Details: for ALOMY damage rating (100=total damage to plant; 0=no damage to plant) / AVEFA damage rating (100=total damage to plant; 0=no damage to plant) / BEAVA damage rating (100=total damage to plant; 0=no damage to plant) / BROTE damage rating (100=total damage to plant; 0=no damage to plant) / BRSNN damage rating (100=total damage to plant; 0=no damage to plant) / CHEAL damage rating (100=total damage to plant; 0=no damage to plant) / GALAP damage rating (100=total damage to plant; 0=no damage to plant) / HORVW damage rating (100=total damage to plant; 0=no damage to plant) / KCHSC damage rating (100=total damage to plant; 0=no damage to plant) / LOLPE damage rating (100=total damage to plant; 0=no damage to plant) / POAAN damage rating (100=total damage to plant; 0=no damage to plant) / POLCO damage rating (100=total damage to plant; 0=no damage to plant) / SINAR damage rating (100=total damage to plant; 0=no damage to plant) / STEME damage rating (100=total damage to plant; 0=no damage to plant) / VERPE damage rating (100=total damage to plant; 0=no damage to plant): "Cereals" Postemergent, evaluated after 15 d; for damage to plant (100=total damage to plant; 0=no damage to plant), ABUTH / damage to plant (100=total damage to plant; 0=no damage to plant), AMARE / damage to plant (100=total damage to plant; 0=no damage to plant), BIDPI / damage to plant (100=total damage to plant; 0=no damage to plant), BRAPL / damage to plant (100=total damage to plant; 0=no damage to plant), CYPES / damage to plant (100=total damage to plant; 0=no damage to plant), DIGSA / damage to plant (100=total damage to plant; 0=no damage to plant), ECHCG / damage to plant (100=total damage to plant; 0=no damage to plant), ELEIN / damage to plant (100=total damage to plant; 0=no damage to plant), EPHHL / damage to plant (100=total damage to plant; 0=no damage to plant), GLXMA / damage to plant (100=total damage to plant; 0=no damage to plant), IPOHE / damage to plant (100=total damage to plant; 0=no damage to plant), ORYSA / damage to plant (100=total damage to plant; 0=no damage to plant), PANMI / damage to plant (100=total damage to plant; 0=no damage to plant), SETFA / damage to plant (100=total damage to plant; 0=no damage to plant), SIDSP / damage to plant (100=total damage to plant; 0=no damage to plant), SORVU: post-emergence
# In short: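 Seeds treated with herbicide safener; sown in soil; glasshouse, 16 h light, 65% humidity. Sprayed day 1 (pre) or ~day 12 (post). Spray in 0.2% v/v adjuvant. Scored 0–100 damage: 20 DAA pre, 15 d post.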
smiles,measurement,setting,value
CN1CC(c2cc(C(F)(F)F)n(C)n2)C(C(=O)Nc2cccc(F)c2F)C1=O (racemic) [Compound 3],ALOMY damage rating (100=total damage to plant; 0=no damage to plant),Rates 130,0
same,ALOMY damage rating (100=total damage to plant; 0=no damage to plant),Rates 250,0
same,ALOMY damage rating (100=total damage to plant; 0=no damage to plant),Rates 500,20
same,AVEFA damage rating (100=total damage to plant; 0=no damage to plant),Rates 130,0
same,AVEFA damage rating (100=total damage to plant; 0=no damage to plant),Rates 250,0
same,AVEFA damage rating (100=total damage to plant; 0=no damage to plant),Rates 500,30
same,BEAVA damage rating (100=total damage to plant; 0=no damage to plant),Rates 130,0
same,BEAVA damage rating (100=total damage to plant; 0=no damage to plant),Rates 250,10
same,BEAVA damage rating (100=total damage to plant; 0=no damage to plant),Rates 500,10
same,BROTE damage rating (100=total damage to plant; 0=no damage to plant),Rates 130,0
same,BROTE damage rating (100=total damage to plant; 0=no damage to plant),Rates 250,0
same,BROTE damage rating (100=total damage to plant; 0=no damage to plant),Rates 500,0
same,BRSNN damage rating (100=total damage to plant; 0=no damage to plant),Rates 130,10
same,BRSNN damage rating (100=total damage to plant; 0=no damage to plant),Rates 250,10
same,BRSNN damage rating (100=total damage to plant; 0=no damage to plant),Rates 500,0
same,CHEAL damage rating (100=total damage to plant; 0=no damage to plant),Rates 130,0
same,CHEAL damage rating (100=total damage to plant; 0=no damage to plant),Rates 250,0
same,CHEAL damage rating (100=total damage to plant; 0=no damage to plant),Rates 500,0
same,GALAP damage rating (100=total damage to plant; 0=no damage to plant),Rates 130,0
same,GALAP damage rating (100=total damage to plant; 0=no damage to plant),Rates 250,0
same,GALAP damage rating (100=total damage to plant; 0=no damage to plant),Rates 500,0
same,HORVW damage rating (100=total damage to plant; 0=no damage to plant),Rates 130,0
same,HORVW damage rating (100=total damage to plant; 0=no damage to plant),Rates 250,0
same,HORVW damage rating (100=total damage to plant; 0=no damage to plant),Rates 500,30
same,KCHSC damage rating (100=total damage to plant; 0=no damage to plant),Rates 130,0
same,KCHSC damage rating (100=total damage to plant; 0=no damage to plant),Rates 250,0
same,KCHSC damage rating (100=total damage to plant; 0=no damage to plant),Rates 500,0
same,LOLPE damage rating (100=total damage to plant; 0=no damage to plant),Rates 130,0
same,LOLPE damage rating (100=total damage to plant; 0=no damage to plant),Rates 250,0
same,LOLPE damage rating (100=total damage to plant; 0=no damage to plant),Rates 500,0
same,POAAN damage rating (100=total damage to plant; 0=no damage to plant),Rates 130,0
same,POAAN damage rating (100=total damage to plant; 0=no damage to plant),Rates 250,20
same,POAAN damage rating (100=total damage to plant; 0=no damage to plant),Rates 500,50
same,POLCO damage rating (100=total damage to plant; 0=no damage to plant),Rates 130,0
same,POLCO damage rating (100=total damage to plant; 0=no damage to plant),Rates 250,0
same,POLCO damage rating (100=total damage to plant; 0=no damage to plant),Rates 500,0
same,SINAR damage rating (100=total damage to plant; 0=no damage to plant),Rates 130,0
same,SINAR damage rating (100=total damage to plant; 0=no damage to plant),Rates 250,0
same,SINAR damage rating (100=total damage to plant; 0=no damage to plant),Rates 500,10
same,STEME damage rating (100=total damage to plant; 0=no damage to plant),Rates 130,0
same,STEME damage rating (100=total damage to plant; 0=no damage to plant),Rates 250,0
same,STEME damage rating (100=total damage to plant; 0=no damage to plant),Rates 500,10
same,VERPE damage rating (100=total damage to plant; 0=no damage to plant),Rates 130,0
same,VERPE damage rating (100=total damage to plant; 0=no damage to plant),Rates 250,0
same,VERPE damage rating (100=total damage to plant; 0=no damage to plant),Rates 500,60
same,"damage to plant (100=total damage to plant; 0=no damage to plant), ABUTH","rate 130, evaluated after 15 d",0
same,"damage to plant (100=total damage to plant; 0=no damage to plant), ABUTH","rate 250, evaluated after 15 d",0
same,"damage to plant (100=total damage to plant; 0=no damage to plant), ABUTH","rate 500, evaluated after 15 d",0
same,"damage to plant (100=total damage to plant; 0=no damage to plant), AMARE","rate 130, evaluated after 15 d",0
same,"damage to plant (100=total damage to plant; 0=no damage to plant), AMARE","rate 250, evaluated after 15 d",0
same,"damage to plant (100=total damage to plant; 0=no damage to plant), AMARE","rate 500, evaluated after 15 d",10
same,"damage to plant (100=total damage to plant; 0=no damage to plant), BIDPI","rate 130, evaluated after 15 d",0
same,"damage to plant (100=total damage to plant; 0=no damage to plant), BIDPI","rate 250, evaluated after 15 d",0
same,"damage to plant (100=total damage to plant; 0=no damage to plant), BIDPI","rate 500, evaluated after 15 d",0
same,"damage to plant (100=total damage to plant; 0=no damage to plant), BRAPL","rate 130, evaluated after 15 d",40
same,"damage to plant (100=total damage to plant; 0=no damage to plant), BRAPL","rate 250, evaluated after 15 d",60
same,"damage to plant (100=total damage to plant; 0=no damage to plant), BRAPL","rate 500, evaluated after 15 d",70
same,"damage to plant (100=total damage to plant; 0=no damage to plant), CYPES","rate 130, evaluated after 15 d",0
same,"damage to plant (100=total damage to plant; 0=no damage to plant), CYPES","rate 250, evaluated after 15 d",0
same,"damage to plant (100=total damage to plant; 0=no damage to plant), CYPES","rate 500, evaluated after 15 d",10
same,"damage to plant (100=total damage to plant; 0=no damage to plant), DIGSA","rate 130, evaluated after 15 d",0
same,"damage to plant (100=total damage to plant; 0=no damage to plant), DIGSA","rate 250, evaluated after 15 d",10
same,"damage to plant (100=total damage to plant; 0=no damage to plant), DIGSA","rate 500, evaluated after 15 d",60
same,"damage to plant (100=total damage to plant; 0=no damage to plant), ECHCG","rate 130, evaluated after 15 d",40
same,"damage to plant (100=total damage to plant; 0=no damage to plant), ECHCG","rate 250, evaluated after 15 d",60
same,"damage to plant (100=total damage to plant; 0=no damage to plant), ECHCG","rate 500, evaluated after 15 d",80
same,"damage to plant (100=total damage to plant; 0=no damage to plant), ELEIN","rate 130, evaluated after 15 d",0
same,"damage to plant (100=total damage to plant; 0=no damage to plant), ELEIN","rate 250, evaluated after 15 d",0
same,"damage to plant (100=total damage to plant; 0=no damage to plant), ELEIN","rate 500, evaluated after 15 d",0
same,"damage to plant (100=total damage to plant; 0=no damage to plant), EPHHL","rate 130, evaluated after 15 d",0
same,"damage to plant (100=total damage to plant; 0=no damage to plant), EPHHL","rate 250, evaluated after 15 d",0
same,"damage to plant (100=total damage to plant; 0=no damage to plant), EPHHL","rate 500, evaluated after 15 d",0
same,"damage to plant (100=total damage to plant; 0=no damage to plant), GLXMA","rate 130, evaluated after 15 d",10
same,"damage to plant (100=total damage to plant; 0=no damage to plant), GLXMA","rate 250, evaluated after 15 d",10
same,"damage to plant (100=total damage to plant; 0=no damage to plant), GLXMA","rate 500, evaluated after 15 d",20
same,"damage to plant (100=total damage to plant; 0=no damage to plant), IPOHE","rate 130, evaluated after 15 d",0
same,"damage to plant (100=total damage to plant; 0=no damage to plant), IPOHE","rate 250, evaluated after 15 d",0
same,"damage to plant (100=total damage to plant; 0=no damage to plant), IPOHE","rate 500, evaluated after 15 d",0
same,"damage to plant (100=total damage to plant; 0=no damage to plant), ORYSA","rate 130, evaluated after 15 d",0
same,"damage to plant (100=total damage to plant; 0=no damage to plant), ORYSA","rate 250, evaluated after 15 d",0
same,"damage to plant (100=total damage to plant; 0=no damage to plant), ORYSA","rate 500, evaluated after 15 d",20
same,"damage to plant (100=total damage to plant; 0=no damage to plant), PANMI","rate 130, evaluated after 15 d",0
same,"damage to plant (100=total damage to plant; 0=no damage to plant), PANMI","rate 250, evaluated after 15 d",0
same,"damage to plant (100=total damage to plant; 0=no damage to plant), PANMI","rate 500, evaluated after 15 d",0
same,"damage to plant (100=total damage to plant; 0=no damage to plant), SETFA","rate 130, evaluated after 15 d",0
same,"damage to plant (100=total damage to plant; 0=no damage to plant), SETFA","rate 250, evaluated after 15 d",0
same,"damage to plant (100=total damage to plant; 0=no damage to plant), SETFA","rate 500, evaluated after 15 d",60
same,"damage to plant (100=total damage to plant; 0=no damage to plant), SIDSP","rate 130, evaluated after 15 d",0
same,"damage to plant (100=total damage to plant; 0=no damage to plant), SIDSP","rate 250, evaluated after 15 d",0
same,"damage to plant (100=total damage to plant; 0=no damage to plant), SIDSP","rate 500, evaluated after 15 d",0
same,"damage to plant (100=total damage to plant; 0=no damage to plant), SORVU","rate 130, evaluated after 15 d",0
same,"damage to plant (100=total damage to plant; 0=no damage to plant), SORVU","rate 250, evaluated after 15 d",0
same,"damage to plant (100=total damage to plant; 0=no damage to plant), SORVU","rate 500, evaluated after 15 d",0
